Results: US12275734B1, “Pleuromutilin onium salt derivative containing a 3H-imidazo[4,5-c]pyridine side chain, and a preparation method and application thereof” (SHAANXI UNIVERSITY OF SCIENCE AND TECHNOLOGY, priority 2024, dated 2025)
In brackets after ≈: the same amount, converted by molar mass. Where two headings read alike, the source gives them in different places.

What was measured:
[1] = tested on: methicillin-resistant Staphylococcus aureus-222; assay: MIC, clinical isolates; assay type: cell-based; details: MRSA / MRSE
Description: (§1) The minimum inhibitory concentration of 3H-imidazo[4,5-C]pyridine pleuromutilin onium salt derivatives against the tested pathogenic microorganisms were determined by broth microdilution method, with valnemulin and retapamulin as positive controls.
(§2) The experimental strains included resistant Gram-positive bacteria: Methicillin-resistant S. aureus ATCC 33591; Methicillin-resistant S. aureus ATCC 43300; S. aureus ATCC 29213; Methicillin-resistant S. epidermidis ATCC 51625. Resistant Gram-negative bacteria: A. baumannii ATCC 19606; S. enterica ATCC14028; E. coli ATCC 25922; E. coli CMCC 44103. 9 clinically isolated resistant strains: MRSA-171; MRSA-575; MRSA-206; MRSA-222; MRSA-596; VRE-80; MDR-PA-126; MDR-KP-893; CR-AB-882.
(§3) (1) Preparation of MHB medium: Weigh 18.0 g of MHB medium pre-made powder, add it to 1 L of distilled water, heat and boil until completely dissolved, divide it into conical bottles, sterilize it by high pressure at 121° C. for 15 minutes, and set aside.
(§4) (2) Cultivate the experimental strain to the logarithmic growth phase: Under sterile conditions, inoculate the experimental strain into fresh MHB medium and culture it in a 37° C. constant temperature and humidity incubator for 16-24 hours. Adjust the bacterial solution concentration to 1.5×10^8 CFU/mL and then dilute it 200 times for later use.
(§5) (3) Preparation of storage solution: Weigh the sample to be tested, dissolve it in 1% DMSO solution, and prepare a storage solution with a concentration of 2560 μg/mL; weigh the positive control, dissolve it in sterile distilled water, and prepare a storage solution with a concentration of 2560 μg/mL.
(§6) (4) Preparation of bacterial suspension: Under sterile conditions, the experimental strain cultured to the logarithmic growth phase was calibrated to a 0.5 McFarland unit turbidity standard using MHB medium and then diluted at a ratio of 1:200 to prepare a bacterial suspension with a concentration of 5×10^5 CFU/mL for later use.
(§7) (5) Determination of MIC by two-fold microdilution method: Take a sterile 96-well plate, add 10 μL of the test compound at a concentration of 2560 μg/mL, and perform serial dilutions by the two-fold dilution method. At the same time, set up a negative control group without drug. Then add 190 μL of diluted bacterial solution to each well, so that the final bacterial solution concentration in each well is 5×10^5 CFU/mL, and incubate in a 37° C. constant temperature and humidity chamber for 24 hours.

[2] = tested on: methicillin-resistant Staphylococcus aureus-575; assay: MIC, clinical isolates; assay type: cell-based
Description: as §1, §2, §3, §4, §5, §6, §7

[3] = tested on: methicillin-resistant Staphylococcus aureus-596; assay: MIC, clinical isolates; assay type: cell-based
Description: as §1, §2, §3, §4, §5, §6, §7

A549 Cells = assay: Cytotoxicity, Cell Counting Kit-8; assay type: cell-based
Description: (§8) Cell Counting Kit-8 was used to evaluate the cytotoxicity of the compounds.
(§9) (4) Cell culture: HepG2, HEK293 and A549 cells were evenly dispersed in culture medium, seeded into 96-well plates, and cultured under appropriate environmental conditions to keep the cells completely attached to the well walls.
(§10) (5) Compound treatment: Add different concentrations of compounds I-8 and I-9 to each well (the concentrations are 0.78, 1.56, 3.13, 6.25, 12.5, 25, 50 and 100 μM, respectively, and perform 6 parallel experiments). Set up a blank control group and a normal control group. After incubation for 24 hours, observe the cell condition, which observed under a microscope.
(§11) (6) CCK-8 solution treatment: Add CCK-8 solution to each well and incubate for 4 hours to allow it to react with the cells.
(§12) (7) Absorbance determination: Use a full-wavelength scanning multifunctional reader, place the 96-well plate in the instrument, oscillate to mix to make the color evenly distributed, and measure the absorbance value at 490 nm.
(§13) (8) Data analysis: Based on the measured absorbance values, the cell survival rate at different concentrations can be calculated. The median cytotoxic concentration was used to evaluate the cytotoxicity of the compound to A549, HEK293 and HepG2 cells.

HEK293 Cells = assay: Cytotoxicity, Cell Counting Kit-8; assay type: cell-based
Description: as §8, §9, §10, §11, §12, §13

HepG2 Cells = assay: Cytotoxicity, Cell Counting Kit-8; assay type: cell-based
Description: as §8, §9, §10, §11, §12, §13

MRSA (ATCC 33591) [4] = assay: Time-kill curve; assay type: cell-based, S. aureus; details: 1×MIC to 8×MIC, 0-24 hours
Description: Based on the MIC test results, the best performing active compounds were selected for time-kill curve studies.
(2) Sampling: At 0, 2, 4, 6, 8, 12, and 24 hours, aspirate 100 μL of the mixture
(3) Serial dilution and coating: Use 10 mM PBS buffer to dilute 10 times continuously, and evenly coat the diluted liquid on the agar plate
(4) Incubation and counting: Incubate in a 37° C. incubator for 24 hours and count the colonies.
(5) Sterilization curve drawing: Draw the curve of colony count change over time at different compound concentrations, and record the results as shown in FIG. 1.

MRSA (ATCC 33591) [5] = assay: Bacterial intracellular pH (cFDA-SE); assay type: cell-based, S. aureus; details: control 6.57±0.10
Description: The definition of pHin is based on the ratio of the pH-sensitive wavelength (490 nm) to the pH-insensitive wavelength (440 nm).
First, prepare fluorescently labeled bacterial cells. MRSA and E. coli bacteria were removed from the culture in the logarithmic growth phase, and after high-speed centrifugation and washing with HEPES buffer, the bacteria were labeled with carboxyfluorescein succinimidyl ester (cFDA-SE), and the fluorescent dye was bound to the cells by incubation.
Next, PBS buffer was used to wash and remove the unbound fluorescent dye, and then the cells were suspended in the buffer and stored in a low-temperature environment. The second step was to determine the intracellular pH. The fluorescently labeled cell suspension was added to a test tube containing different concentrations of compound i and transferred to a black opaque 96-well plate for incubation. The fluorescence value was measured at specific excitation and emission wavelengths using a full-wavelength scanning multifunctional reader to calculate the intracellular pH. The last step is the calibration of the intracellular pH. The standard curve was determined using buffer solutions with different pH values to ensure accurate determination of the pH value inside the bacterial cells. […]

SMILES	MIC ([1]; read-out: Antibacterial activity (MIC) MRSE^e) [µg/mL]	MIC ([2]; MRSA, read-out: Antibacterial activity (MIC) MRSA^c) [µg/mL]	MIC ([3]; MRSA, read-out: Antibacterial activity (MIC) MRSA^f) [µg/mL]	CC50 (A549 Cells; human, 24 h) [µM]	CC50 (HEK293 Cells; human, 24 h) [µM]	CC50 (HepG2 Cells; human, 24 h) [µM]	bactericidal efficiency (time-kill curve) compared with retapamulin (MRSA (ATCC 33591) [4])	intracellular pH after treatment (MRSA (ATCC 33591) [5]; 1×MIC)	intracellular pH after treatment (MRSA (ATCC 33591) [5]; 2×MIC)	MIC ([1]; clinical isolate MRSA-222, read-out: Antibacterial activity (MIC) MRSE^e) [µg/mL]	MIC ([2]; clinical isolate MRSA-575, read-out: Antibacterial activity (MIC) MRSA^c) [µg/mL]	MIC ([3]; clinical isolate MRSA-596, read-out: Antibacterial activity (MIC) MRSA^f) [µg/mL]	CC50 (A549 Cells; CCK-8, 24 hours incubation, read-out: CC50 A549 Cells) [µM]	CC50 (HEK293 Cells; CCK-8, 24 hours incubation, read-out: CC50 HEK293 Cells) [µM]	CC50 (HepG2 Cells; CCK-8, 24 hours incubation, read-out: CC50 HepG2 Cells) [µM]
C=C[C@]1(C)C[C@@H](OC(=O)CS[C@@H]2C[C@H]3CC[C@@H](C2)N3C)[C@]2(C)[C@H](C)CC[C@]3(CCC(=O)[C@H]32)[C@@H](C)[C@@H]1O [Retapamulin, reference compound]	128 (≈ 247 µM)	32 (≈ 61.8 µM)	32 (≈ 61.8 µM)	71.5	57.5	61.1	–	–	–	–	–	–	–	–	–
C=C[C@]1(C)C[C@@H](OC(=O)CSc2nc3cc[n+](Cc4ccc(C)cc4)cc3[nH]2)[C@]2(C)[C@H](C)CC[C@]3(CCC(=O)[C@H]32)[C@@H](C)[C@@H]1O [Compound i, 5-(4-methylbenzyl)-2-((2-(((3aR,4R,5R,7S,8S,9R,9aS,12R)-8-hydroxy-4,7,9,12-tetramethyl-3-oxo-7-vinyldecahydro-4,9a-propancyclopenta[8]cyclo-5-yl)oxy)-2-oxoethyl)thio)-3H-imidazo[4,5-C]pyridine-5-ium]	–	–	–	–	–	–	higher bactericidal efficiency	4.66±0.12	2.96±0.09	4	1	2	> 100	96.4	> 100
